Here are results for one molecule from patent publication EP1844786A1, “Extracts of Curcuma longa and their cosmetic and dermatological uses” (EXSYMOL S.A.M., priority 2006, dated 2007).

Read-outs that look alike come from different tables or passages of the source.

The assay relates to métabolisation de la testostérone dans des épidermes reconstruits d'origine humaine. The assay is described as follows: Effect on testosterone metabolisation in reconstructed human epidermis (Test 1; labelled testosterone, silica-plate chromatography, radioactivity counting). The note with it: 10^-4M; for inhibition at 100 µM: relative to untreated control, 24 h, mean of 3 epidermes. The format is cell-based. From the text: Test 1 : mise en évidence de l'effet d'un extrait de Curcuma longa sur la métabolisation de la testostérone dans des épidermes reconstruits d'origine humaine (fournisseur : SkinEthic®).
Ces épidermes constituent un matériel biologique présentant une forte homologie avec l'épiderme humain, et permettant de tester de manière réaliste un produit destiné à être appliqué à la surface de la peau. Un extrait glycolique de feuilles de Curcuma longa a donc été testé, à différentes concentrations. Leur action a par ailleurs été comparée à celle d'un inhibiteur spécifique de la 5-alpha-réductase, le Finastéride® (molécule de référence dans ce type d'évaluation). Des épidermes reconstruits de 17 jours ont ainsi été pré-cultivés en plaque 24 puits, pendant 24 heures. Puis 100 µl de testostérone marquée ont été déposés sur la face cornée de chaque épiderme. Après 24 nouvelles heures, les milieux de culture ont été prélevés pour analyse. Il est alors regardé la métabolisation de la testostérone par chromatographie sur plaque de silice et par comptage direct de la radioactivité des différents spots, à l'aide du logiciel "Optiquant version 3 (packard)". Différents métabolites, et en particulier la dihydrotestostérone (DHT), sont identifiés à l'aide de standards. Chaque point est la moyenne de 3 mesures effectuées sur des épidermes différents.

With `CC(C)(C)NC(=O)[C@H]1CC[C@H]2[C@@H]3CC[C@H]4NC(=O)C=C[C@]4(C)[C@H]3CC[C@]12C` [Finastéride], the inhibition at 100 µM is, setting by setting: (read-out: % inhibition métabolisation testostérone) 54%; (read-out: % inhibition transformation en DHT) 92%. Further, the “Ratio DHT/testo.” value (untreated control 2,2) is 0,1.
